The values below come from ChEMBL document CHEMBL1154397, “Synthesis and SAR of 4-substituted-2-aminopyrimidines as novel c-Jun N-terminal kinase (JNK) inhibitors” (Bioorg Med Chem Lett, 2009).

The nature of data set [1]: Permeability from basolateral to apical side of human Caco-2 cells. The class given is ADME, cell-based. The following applies: read-out: permeability. For orientation: Passage across Caco-2 layers is used to estimate intestinal permeability.
The target in data set [2] is Mitogen-activated protein kinase 8 (Homo sapiens, UniProt P45983). Put plainly: Inhibition of JNK1.
For another data set, the system named is Liver microsomes. Put plainly: Metabolic stability in human liver microsomes assessed as clearance. The class given is ADME, Microsome. Background: Liver microsomes are vesicles of endoplasmic reticulum, rich in cytochrome P450 enzymes.
A short description of data set [3]: Permeability from apical to basolateral side of human Caco-2 cells. The class given is ADME, cell-based. Particulars: read-out: permeability.
Data set [4] deals with c-Jun N-terminal kinase, JNK (Homo sapiens, UniProt P45983+P53779+P45984). Kind of data set: Inhibition of TNF-alpha-induced phosphorylation of […] in human HepG2 cells. It counts as cell-based.
Data set [5] is described as follows: Metabolic stability in rat liver microsomes assessed as clearance. The class given is ADME, Microsome.
Data set [6] has as its target Voltage-gated inwardly rectifying potassium channel KCNH2 (Homo sapiens, UniProt Q12809). Kind of data set: Binding affinity to human ERG.
Data set [7] in a line: Lipophilicity, log D of the compound. The class given is physicochemical. The following applies: octanol/water.
Data set [8] can be described thus: Selectivity ratio of IC50 for p38MAPKbeta to IC50 for JNK1.
Data set [9] is described as follows: Selectivity ratio of IC50 for p38MAPKgamma to IC50 for JNK1.
The target of data set [10] is Mitogen-activated protein kinase 12 (Homo sapiens, UniProt P53778). Put plainly: Inhibition of SAPK3.
In data set [11] the target is Inhibitor of nuclear factor kappa-B kinase subunit beta (Homo sapiens, UniProt O14920). Put plainly: Inhibition of IKKb.
The target in data set [12] is Mitogen-activated protein kinase 9 (Homo sapiens, UniProt P45984). Kind of data set: Inhibition of to JNK2.
For data set [13], the target named is Mitogen-activated protein kinase 14 (Homo sapiens, UniProt Q16539). Kind of data set: Inhibition of SAPK2a.
Data set [14] addresses Mitogen-activated protein kinase 10 (Homo sapiens, UniProt P53779). Put plainly: Inhibition of JNK3.
The target of data set [15] is Dual specificity mitogen-activated protein kinase kinase 1 (Homo sapiens, UniProt Q02750). Kind of data set: Inhibition of MEK1.
For data set [16], the target named is Ribosomal protein S6 kinase beta-1 (Homo sapiens, UniProt P23443). Put plainly: Inhibition of P70s6K.
The next data set addresses Insulin receptor (Homo sapiens, UniProt P06213). Put plainly: Inhibition of IR.
For data set [17], the target named is MAP kinase-activated protein kinase 2 (Homo sapiens, UniProt P49137). Kind of data set: Inhibition of MAPKAP-K2.
In data set [18] the target is Dual specificity mitogen-activated protein kinase kinase 7 (Homo sapiens, UniProt O14733). Put plainly: Inhibition of MKK7beta.
For data set [19], the target named is Dual specificity mitogen-activated protein kinase kinase 4 (Homo sapiens, UniProt P45985). Kind of data set: Inhibition of MKK4.
Data set [20] deals with Glycogen synthase kinase-3 beta (Homo sapiens, UniProt P49841). Kind of data set: Inhibition of GSK3-beta.
In data set [21] the target is Mitogen-activated protein kinase 13 (Homo sapiens, UniProt O15264). Kind of data set: Inhibition of SPAK4.
For data set [22], the target named is Dual specificity mitogen-activated protein kinase kinase 6 (Homo sapiens, UniProt P52564). Put plainly: Inhibition of MKK6.
Data set [23] deals with Protein kinase C theta type (Homo sapiens, UniProt Q04759). Put plainly: Inhibition of PKCtheta.
The target in data set [24] is Cyclin-dependent kinase 2 (Homo sapiens, UniProt P24941). Put plainly: Inhibition of CDK2/cyclinA.
For data set [25], the target named is Mitogen-activated protein kinase 11 (Homo sapiens) (UniProt Q15759). Put plainly: Inhibition of SAPK2b.
For data set [26], the target named is 5'-AMP-activated protein kinase catalytic subunit alpha-2 (Homo sapiens, UniProt P54646). Kind of data set: Inhibition of AMPK.

Chain of Mitogen-activated protein kinase 8 (P45983 whole entry): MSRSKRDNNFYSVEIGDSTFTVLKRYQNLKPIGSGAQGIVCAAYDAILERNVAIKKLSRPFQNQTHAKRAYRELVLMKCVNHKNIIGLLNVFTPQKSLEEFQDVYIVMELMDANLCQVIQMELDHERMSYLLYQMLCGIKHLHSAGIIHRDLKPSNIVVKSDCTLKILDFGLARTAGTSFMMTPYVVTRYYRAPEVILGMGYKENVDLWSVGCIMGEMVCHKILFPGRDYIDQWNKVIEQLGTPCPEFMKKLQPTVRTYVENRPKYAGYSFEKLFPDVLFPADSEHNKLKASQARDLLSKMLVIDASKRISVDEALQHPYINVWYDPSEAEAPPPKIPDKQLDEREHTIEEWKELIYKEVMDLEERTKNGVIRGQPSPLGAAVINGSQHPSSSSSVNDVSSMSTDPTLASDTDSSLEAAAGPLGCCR
Chain of Mitogen-activated protein kinase 13 (O15264 whole entry): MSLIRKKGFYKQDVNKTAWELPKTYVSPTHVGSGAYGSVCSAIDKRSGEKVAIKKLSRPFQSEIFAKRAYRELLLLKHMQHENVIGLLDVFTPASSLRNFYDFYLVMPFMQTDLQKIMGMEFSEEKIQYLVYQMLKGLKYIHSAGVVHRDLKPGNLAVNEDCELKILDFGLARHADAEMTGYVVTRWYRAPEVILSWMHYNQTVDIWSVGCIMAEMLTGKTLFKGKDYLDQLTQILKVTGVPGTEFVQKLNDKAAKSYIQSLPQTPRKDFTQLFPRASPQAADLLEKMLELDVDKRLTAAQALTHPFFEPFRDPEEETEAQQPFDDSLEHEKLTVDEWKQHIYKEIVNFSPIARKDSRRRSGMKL
Chain of Mitogen-activated protein kinase 10 (P53779 whole entry): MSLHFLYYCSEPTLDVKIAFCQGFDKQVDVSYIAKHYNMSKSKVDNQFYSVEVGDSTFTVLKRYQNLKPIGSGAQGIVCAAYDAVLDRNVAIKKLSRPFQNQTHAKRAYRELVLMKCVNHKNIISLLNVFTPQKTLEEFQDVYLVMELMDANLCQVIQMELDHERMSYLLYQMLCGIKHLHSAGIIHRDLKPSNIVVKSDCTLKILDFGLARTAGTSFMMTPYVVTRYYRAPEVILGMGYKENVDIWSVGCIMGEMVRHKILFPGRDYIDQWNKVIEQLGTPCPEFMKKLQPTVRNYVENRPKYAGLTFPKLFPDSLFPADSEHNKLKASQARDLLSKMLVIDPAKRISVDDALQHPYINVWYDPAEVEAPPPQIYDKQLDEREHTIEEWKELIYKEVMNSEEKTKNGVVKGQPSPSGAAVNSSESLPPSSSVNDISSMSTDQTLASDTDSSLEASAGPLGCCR
Chain of Ribosomal protein S6 kinase beta-1 (P23443 whole entry): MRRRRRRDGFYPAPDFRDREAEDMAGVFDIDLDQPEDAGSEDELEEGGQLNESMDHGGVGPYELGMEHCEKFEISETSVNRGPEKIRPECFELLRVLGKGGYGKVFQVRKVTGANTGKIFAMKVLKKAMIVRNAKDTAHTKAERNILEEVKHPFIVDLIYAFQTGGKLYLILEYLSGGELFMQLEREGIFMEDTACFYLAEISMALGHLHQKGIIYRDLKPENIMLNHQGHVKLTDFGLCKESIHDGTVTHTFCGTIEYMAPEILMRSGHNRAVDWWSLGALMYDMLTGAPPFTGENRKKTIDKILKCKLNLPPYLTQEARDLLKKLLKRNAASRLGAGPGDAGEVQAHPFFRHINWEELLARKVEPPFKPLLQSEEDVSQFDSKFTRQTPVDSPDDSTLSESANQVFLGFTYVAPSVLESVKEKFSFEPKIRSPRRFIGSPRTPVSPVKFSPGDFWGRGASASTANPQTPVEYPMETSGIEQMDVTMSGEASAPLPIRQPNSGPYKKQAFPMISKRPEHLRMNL
Chain of Dual specificity mitogen-activated protein kinase kinase 1 (Q02750 whole entry): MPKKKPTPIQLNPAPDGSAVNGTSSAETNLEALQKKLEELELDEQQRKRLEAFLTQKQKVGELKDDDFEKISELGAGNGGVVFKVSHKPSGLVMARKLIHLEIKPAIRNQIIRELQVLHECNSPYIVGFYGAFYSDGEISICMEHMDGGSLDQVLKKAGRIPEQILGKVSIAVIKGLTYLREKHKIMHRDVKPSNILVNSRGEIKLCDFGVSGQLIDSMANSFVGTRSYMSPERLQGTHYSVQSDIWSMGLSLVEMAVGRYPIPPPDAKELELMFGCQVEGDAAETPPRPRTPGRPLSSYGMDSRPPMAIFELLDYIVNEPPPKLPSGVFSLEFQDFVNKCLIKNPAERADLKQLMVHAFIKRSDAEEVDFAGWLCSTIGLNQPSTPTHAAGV
Chain of Mitogen-activated protein kinase 9 (P45984 whole entry): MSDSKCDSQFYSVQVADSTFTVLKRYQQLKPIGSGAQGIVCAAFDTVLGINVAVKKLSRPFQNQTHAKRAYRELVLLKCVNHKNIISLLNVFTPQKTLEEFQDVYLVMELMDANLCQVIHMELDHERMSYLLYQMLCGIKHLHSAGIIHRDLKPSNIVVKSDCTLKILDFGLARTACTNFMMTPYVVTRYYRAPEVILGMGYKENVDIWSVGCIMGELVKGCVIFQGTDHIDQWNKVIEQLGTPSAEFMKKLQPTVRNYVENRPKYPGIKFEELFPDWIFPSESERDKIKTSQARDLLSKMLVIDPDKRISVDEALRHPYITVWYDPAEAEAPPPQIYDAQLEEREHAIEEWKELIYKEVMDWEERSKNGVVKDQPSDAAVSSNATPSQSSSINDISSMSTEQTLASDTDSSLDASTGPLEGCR
Chain of Mitogen-activated protein kinase 14 (Q16539 whole entry): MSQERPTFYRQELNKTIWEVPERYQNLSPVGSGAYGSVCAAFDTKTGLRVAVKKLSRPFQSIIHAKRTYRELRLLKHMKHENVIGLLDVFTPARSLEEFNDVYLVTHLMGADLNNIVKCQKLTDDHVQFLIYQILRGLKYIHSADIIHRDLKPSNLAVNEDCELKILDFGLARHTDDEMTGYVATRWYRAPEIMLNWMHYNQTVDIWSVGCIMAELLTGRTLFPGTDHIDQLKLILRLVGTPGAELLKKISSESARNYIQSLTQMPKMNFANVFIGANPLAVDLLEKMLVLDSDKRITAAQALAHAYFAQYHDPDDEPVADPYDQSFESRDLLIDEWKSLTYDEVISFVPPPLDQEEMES
Chain of Voltage-gated inwardly rectifying potassium channel KCNH2 (Q12809 whole entry): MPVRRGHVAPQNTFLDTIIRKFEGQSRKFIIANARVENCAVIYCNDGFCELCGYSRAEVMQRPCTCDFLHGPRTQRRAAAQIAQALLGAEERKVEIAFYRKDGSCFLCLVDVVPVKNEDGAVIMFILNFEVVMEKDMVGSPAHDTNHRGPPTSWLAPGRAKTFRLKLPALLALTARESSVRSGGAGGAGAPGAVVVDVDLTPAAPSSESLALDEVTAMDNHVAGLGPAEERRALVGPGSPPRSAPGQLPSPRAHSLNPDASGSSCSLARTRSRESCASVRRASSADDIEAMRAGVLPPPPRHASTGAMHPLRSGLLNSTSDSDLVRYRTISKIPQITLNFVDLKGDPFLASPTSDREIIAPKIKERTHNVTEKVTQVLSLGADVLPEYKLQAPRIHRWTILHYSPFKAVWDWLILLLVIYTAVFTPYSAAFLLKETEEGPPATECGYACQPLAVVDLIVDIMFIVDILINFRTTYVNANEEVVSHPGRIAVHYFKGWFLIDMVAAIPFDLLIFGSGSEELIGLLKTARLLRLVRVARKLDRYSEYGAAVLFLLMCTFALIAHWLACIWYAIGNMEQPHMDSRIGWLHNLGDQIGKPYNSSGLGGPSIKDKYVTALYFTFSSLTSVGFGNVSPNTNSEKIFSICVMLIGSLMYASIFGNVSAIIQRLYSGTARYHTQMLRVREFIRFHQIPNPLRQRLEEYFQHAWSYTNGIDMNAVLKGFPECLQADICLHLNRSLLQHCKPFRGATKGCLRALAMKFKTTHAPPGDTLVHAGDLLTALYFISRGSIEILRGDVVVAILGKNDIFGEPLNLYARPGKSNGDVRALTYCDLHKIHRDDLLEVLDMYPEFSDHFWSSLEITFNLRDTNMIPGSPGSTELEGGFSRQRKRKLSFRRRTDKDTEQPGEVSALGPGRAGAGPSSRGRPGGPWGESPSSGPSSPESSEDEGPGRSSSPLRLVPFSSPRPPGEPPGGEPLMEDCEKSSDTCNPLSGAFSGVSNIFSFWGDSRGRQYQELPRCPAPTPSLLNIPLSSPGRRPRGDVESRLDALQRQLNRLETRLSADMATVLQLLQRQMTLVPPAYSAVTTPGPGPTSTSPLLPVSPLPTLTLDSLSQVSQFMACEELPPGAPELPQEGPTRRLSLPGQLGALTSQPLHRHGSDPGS
Chain of Dual specificity mitogen-activated protein kinase kinase 6 (P52564 whole entry): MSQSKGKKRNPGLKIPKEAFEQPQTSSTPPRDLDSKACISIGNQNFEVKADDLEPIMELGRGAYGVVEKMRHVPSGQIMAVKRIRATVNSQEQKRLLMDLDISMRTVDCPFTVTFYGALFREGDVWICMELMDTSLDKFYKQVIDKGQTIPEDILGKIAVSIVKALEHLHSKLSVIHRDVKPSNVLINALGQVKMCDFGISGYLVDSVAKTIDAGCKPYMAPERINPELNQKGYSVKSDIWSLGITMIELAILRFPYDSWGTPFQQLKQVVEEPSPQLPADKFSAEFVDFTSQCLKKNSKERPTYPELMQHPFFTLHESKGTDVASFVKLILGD
Chain of Dual specificity mitogen-activated protein kinase kinase 4 (P45985 whole entry): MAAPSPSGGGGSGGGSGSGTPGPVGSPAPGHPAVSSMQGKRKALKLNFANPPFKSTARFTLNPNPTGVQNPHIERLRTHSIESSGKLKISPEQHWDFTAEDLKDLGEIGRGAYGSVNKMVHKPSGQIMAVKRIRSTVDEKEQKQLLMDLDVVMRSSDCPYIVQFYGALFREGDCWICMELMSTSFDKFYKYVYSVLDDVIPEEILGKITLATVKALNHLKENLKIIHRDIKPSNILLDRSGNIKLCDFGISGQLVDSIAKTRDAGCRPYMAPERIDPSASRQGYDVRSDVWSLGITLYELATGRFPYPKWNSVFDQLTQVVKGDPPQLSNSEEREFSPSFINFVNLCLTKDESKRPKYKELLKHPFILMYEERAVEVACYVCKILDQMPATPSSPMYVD

In general, Ki refers to the dissociation constant of the complex between target and ligand, obtained from inhibition or displacement. A higher Ki goes with lower affinity. For orientation: microsomal CLint means the capacity of the preparation to metabolise the compound, expressed as a volume cleared per time. For the compound `C[C@H](CC(=O)O)Nc1nccc(-c2c[nH]nc2-c2ccc(Cl)cc2)n1`, in [1], the Papp B→A stood at 13.2 ×10⁻⁶ cm/s. The Ki in data set [2] came out at 315 nM. Also, the microsomal CLint with Liver microsomes is below 6 µL/min/mg. Besides, the Papp A→B in data set [3] stood at 0.3 ×10⁻⁶ cm/s.

In general, IC50 refers to the concentration at which inhibition is half-maximal. Compound `CC(C)Nc1nccc(-c2c[nH]nc2C2CCCOC2)n1` (configuration not stated) gave an inhibition constant Ki in [2] of 43 nM. Besides, the microsomal CLint with Liver microsomes worked out at 34 µL/min/mg; in data set [5], 18 µL/min/mg. The compound also came in with an IC50 in data set [4] of 357 nM.

Consider `Clc1ccc(-c2n[nH]cc2-c2ccnc(NC3CCCCC3)n2)cc1`, for which the inhibitory constant (Ki) in data set [2] came out at 27 nM. Also, the microsomal CLint with Liver microsomes was found to be 156 µL/min/mg. The IC50 in [4] came to 1100 nM.

`Cc1ccnc(S)n1` showed a Ki in data set [2] of 2060 nM.

For the compound `CN1CCC(Nc2nccc(-c3c[nH]nc3-c3ccc(Cl)cc3)n2)CC1`, the Ki in [6] is 1020 nM; in data set [2], 1570 nM. Further, the microsomal CLint in the data set on Liver microsomes was determined as 14 µL/min/mg.

A word on the logD: it is lipophilicity at a set pH, counting ionised and neutral species. Low readings indicate lower lipophilicity, high ones higher lipophilicity. For `Clc1ccc(-c2n[nH]cc2-c2ccnc(NC3CCCC3)n2)cc1`, the logD in data set [7] worked out at 4.42. In addition, in data set [2], the Ki was found to be 26 nM. Also, the microsomal CLint with Liver microsomes was 116 µL/min/mg. In data set [4], this compound had an IC50 of 460 nM.

Take `Clc1ccc(-c2n[nH]cc2-c2ccnc(NC3CC3)n2)cc1`: the affinity in data set [2] corresponds to a Ki of 151 nM. In addition, the microsomal CLint in the data set with Liver microsomes amounted to 96 µL/min/mg. Also, in data set [4], the IC50 is on record as 840 nM.

With `CS(=O)(=O)N[C@H]1CC[C@H](c2n[nH]cc2-c2ccnc(NC3CCCC3)n2)CC1`, in data set [2], the inhibition constant (Ki) amounted to 9 nM. Moreover, the microsomal CLint in the data set on Liver microsomes was 11 µL/min/mg. Further, the IC50 in [4] was 114 nM.

In data set [2], `CC(C)Nc1nccc(-c2c[nH]nc2-c2ccc(Cl)cc2)n1` gave a Ki of 48 nM. The microsomal CLint with Liver microsomes turned out to be 106 µL/min/mg. The IC50 in data set [4] turned out to be 920 nM.

On to `CC(C)Nc1nccc(-c2c[nH]nc2C2CCOCC2)n1`, for which the Ki in data set [2] worked out at 169 nM. Moreover, in the data set with Liver microsomes, the microsomal CLint came out at 18 µL/min/mg. In [4], this compound had an IC50 of 814 nM.

As to `CC(C)Nc1nccc(-c2cn[nH]c2C2CCCNC2)n1` (configuration not stated), the Ki in data set [2] worked out at 530 nM. Also, the microsomal CLint in the data set with Liver microsomes was found to be 14 µL/min/mg.

The compound `CC(C)Nc1nccc(-c2cn[nH]c2)n1` came in with a Ki in data set [2] of 2730 nM. Besides, the microsomal CLint with Liver microsomes was found to be 21 µL/min/mg.

For `CC(C)Nc1nccc(-c2cn[nH]c2C2CCCCO2)n1` (configuration not stated), in [2], the Ki came out at 381 nM. The microsomal CLint with Liver microsomes was found to be 21 µL/min/mg. The IC50 in [4] was 3500 nM.

In data set [2], `c1cc(-c2cn[nH]c2C2CCCOC2)nc(NC2CCCC2)n1` (configuration not stated) yielded a Ki of 12 nM. In the data set with Liver microsomes, the microsomal CLint was found to be 89 µL/min/mg. For the same compound, in [4], the IC50 is 245 nM.

`Cc1ccc(-c2n[nH]cc2-c2ccnc(NC3CCN(C)CC3)n2)cn1` yielded a Ki in [2] of 162 nM. Besides, in the data set with Liver microsomes, the intrinsic clearance (microsomal CLint) was 61 µL/min/mg. In [4], the IC50 was found to be 6020 nM.

Regarding `O[C@H]1CC[C@H](c2n[nH]cc2-c2ccnc(NC3CCCC3)n2)CC1`, the Activity in data set [8] and in data set [9] was 100 in each case. In data set [4], this compound displayed an IC50 of 98 nM.

On to `OC1CCCC(c2n[nH]cc2-c2ccnc(NC3CCCC3)n2)C1` (configuration not stated), for which the affinity in data set [2], expressed as Ki, was 36 nM. Besides, in the data set on Liver microsomes, the microsomal CLint worked out at 15 µL/min/mg. This compound also showed an IC50 in data set [4] of 209 nM.

Turning to `CC(=O)N[C@H]1CC[C@H](c2n[nH]cc2-c2ccnc(NC3CCCC3)n2)CC1`, in data set [2], the Ki is 28 nM. In addition, the microsomal CLint with Liver microsomes is below 8 µL/min/mg. In data set [4], the IC50 turned out to be 299 nM.

On to `O[C@H]1CC[C@H](c2[nH]ncc2-c2ccnc(NC3CCCC3)n2)CC1`, for which the IC50 in data set [10] is 6200 nM; in [11], 13000 nM; in data set [13] it was above 30000 nM; in data set [15], above 30000 nM; in data set [16], above 30000 nM; against Insulin receptor it was above 30000 nM. For the same compound, the IC50 is above 30000 nM in [17]; 860 nM in data set [18]; 920 nM in [19]; 1900 nM in data set [20]; 1200 nM in data set [21]; 15000 nM in data set [22]. For the same compound, the IC50 in [23] was above 30000 nM; in [24], 590 nM; in data set [25], 15000 nM; in data set [26] it was above 30000 nM. Moreover, the values for the Ki in [12], in data set [14] and in data set [2] were 17 nM, 16 nM and 12 nM, respectively. Further, the microsomal CLint in the data set with Liver microsomes is below 15 µL/min/mg.

`CC(C)Nc1nccc(-c2cn[nH]c2C2CCN(S(C)(=O)=O)CC2)n1` registered a Ki in [2] of 101 nM. Besides, the figures for the microsomal CLint (with Liver microsomes; in data set [5]) were 12 µL/min/mg and 52 µL/min/mg, respectively. The compound also displayed an IC50 in [4] of 221 nM.
